Like-named read-outs stand apart in the source and are kept apart here.
Experiments:
[1] = biological target: KIF18a-Microtubule Complex (Homo sapiens (Human), UniProt Q8NI77); test: Binding kinetics to KIF18a-microtubule complex (global progress curve analysis); conditions: for koff (off-rate from binding kinetics assay) / kon (on-rate from binding kinetics assay): global progress curve analysis; for Ki: read-out: KI (determined from binding kinetic assay koff/kon), koff/kon; for koff: read-out: koff (off-rate from binding kinetics assay)
Procedure: Binding Kinetics to KIF18a-Microtubule Complex
Compound binding kinetics parameters (kon and koff) were determined by the method of global progress curve analysis (GPCA). […] ADP product levels were determined by the Promega® ADP-Glo assay. The time/dose-dependent progress curves were then globally fit to a Michaelis-Menten kinetics model with 1-step slow binding inhibition to derive both on-rate kon and off-rate koff values (Zhang, R., Wong, K. (2017): “High performance enzyme kinetics of turnover, activation and inhibition for translational drug discovery”, Expert Opinion on Drug Discovery, 2017 January; 12(1):17-37. doi: 10.1080/17460441.2017.1245721).

[2] = system: HCC15 cells; test: Cell viability of KIF18a-sensitive cell lines, HCC15 (Cell Titre-Glo, 7 days); assay type: cell-based; conditions: read-out: HCC-15 IC50
Procedure: (§1) Cell Viability of KIF18a-Sensitive Cell Lines
(§2) Cell lines were seeded as follows 24 hours before compound treatment: HCC15 (Korean Cell Line Bank) 600 cell/well, 95 μL of RPMI-1640 media supplemented with 100 units/mL penicillin, 100 units/mL streptomycin and 10% FBS; NIH:OVCAR-3 (ATCC), 1000 cell/well, 95 μL of RPMI-1640 media supplemented with 100 units/mL penicillin, 100 units/mL streptomycin, 0.01 mg/mL bovine insulin, and 20% FBS; JIMT-1 (Addexbio) 1000 cell/well, 95 μL of DMEM media supplemented with 100 units/mL penicillin, 100 units/mL streptomycin, and 10% FBS.
(§3) Test compounds were added to cells in a 20× dilution scheme by adding 5 μL of serially diluted compound to the plate, and the treated cells were incubated for an additional 7 days in a 37° C., 5% CO2 incubator. DMSO was used as the negative control (0% effect), and wells omitting cells were used as the positive control (100% effect). The cells were incubated for seven days, and cell viability determined via the Promega Cell Titre-Glo® Assay kit. Luminescence units were converted to ATP concentrations via an ATP standard curve (10 point, 2-fold dilution from 5 uM). % Inhibition was calculated for each well as: ([max−min]−[test−min])/[max−min]. IC50 values were calculated from concentration vs. % Inhibition data via a four-parameter variable slope model.

[3] = biological target: hKIF18A (1-374) (Homo sapiens (Human), UniProt Q8NI77); test: Inhibition of KIF18A microtubule-dependent ATPase activity (ADP-Glo)
Procedure: Biological Assays Inhibition of KIF18A Microtubule-Dependent ATPase Activity:
Test compounds were plated in a 3× dilution scheme in a 384-well plate. Assay buffer: 80 mM PIPES (pH 6.9), 1 mM MgCl2, 75 mM KCl, 1 mM EGTA, 1 mM DTT, 0.01% BSA, 0.005% Tween-20, 1 μM Taxol in H2O. […] After incubation at room temperature for 30 min, 2.5 μL of microtubule mix was added [0.2 mg/mL pre-formed microtubules, 2.0 mM ATP in assay buffer], the plate was centrifuged for 30 s and then incubated at 28° C. for 60 min. 5 μL of Promega® ADP-Glo Max R1 was added, the plate was centrifuged for 30 s, and the mixture incubated for 4 h at room temperature. 10 μL of Promega® ADP-Glo Max R2 was added, the plate centrifuged for 30 s, and incubated for 60 min at room temperature. Luminescence was measured with an Envision plate reader, and % Inhibition was calculated for each well as: ([max−min]−[test−min])/[max−min]. IC50 values were calculated from concentration vs. % Inhibition data via a four-parameter variable slope model.

[4] = system: NIH:OVCAR-3 cells; test: Cell viability of KIF18a-sensitive cell lines, NIH:OVCAR-3 (Cell Titre-Glo, 7 days); assay type: cell-based; conditions: NIH-OVCAR3 cells, 7 days, Cell Titre-Glo; read-out: NIH-OVCAR3 IC50
Procedure: as §1, §2, §3

[5] = system: JIMT-1 cells; test: Cell viability of KIF18a-sensitive cell lines, JIMT-1 (Cell Titre-Glo, 7 days); assay type: cell-based; conditions: JIMT-1 cells, 7 days, Cell Titre-Glo; read-out: JIMT-1 IC50
Procedure: as §1, §2, §3

[6] = HCC-15 cells, 7 days, Cell Titre-Glo
[7] = KIF18A microtubule-dependent ATPase activity, biochemical assay
[8] = HCC15, 168 h, HCC-15 cells, 7 days, Cell Titre-Glo

Chain of hKIF18A (1-374) (Q8NI77 whole entry, looked up): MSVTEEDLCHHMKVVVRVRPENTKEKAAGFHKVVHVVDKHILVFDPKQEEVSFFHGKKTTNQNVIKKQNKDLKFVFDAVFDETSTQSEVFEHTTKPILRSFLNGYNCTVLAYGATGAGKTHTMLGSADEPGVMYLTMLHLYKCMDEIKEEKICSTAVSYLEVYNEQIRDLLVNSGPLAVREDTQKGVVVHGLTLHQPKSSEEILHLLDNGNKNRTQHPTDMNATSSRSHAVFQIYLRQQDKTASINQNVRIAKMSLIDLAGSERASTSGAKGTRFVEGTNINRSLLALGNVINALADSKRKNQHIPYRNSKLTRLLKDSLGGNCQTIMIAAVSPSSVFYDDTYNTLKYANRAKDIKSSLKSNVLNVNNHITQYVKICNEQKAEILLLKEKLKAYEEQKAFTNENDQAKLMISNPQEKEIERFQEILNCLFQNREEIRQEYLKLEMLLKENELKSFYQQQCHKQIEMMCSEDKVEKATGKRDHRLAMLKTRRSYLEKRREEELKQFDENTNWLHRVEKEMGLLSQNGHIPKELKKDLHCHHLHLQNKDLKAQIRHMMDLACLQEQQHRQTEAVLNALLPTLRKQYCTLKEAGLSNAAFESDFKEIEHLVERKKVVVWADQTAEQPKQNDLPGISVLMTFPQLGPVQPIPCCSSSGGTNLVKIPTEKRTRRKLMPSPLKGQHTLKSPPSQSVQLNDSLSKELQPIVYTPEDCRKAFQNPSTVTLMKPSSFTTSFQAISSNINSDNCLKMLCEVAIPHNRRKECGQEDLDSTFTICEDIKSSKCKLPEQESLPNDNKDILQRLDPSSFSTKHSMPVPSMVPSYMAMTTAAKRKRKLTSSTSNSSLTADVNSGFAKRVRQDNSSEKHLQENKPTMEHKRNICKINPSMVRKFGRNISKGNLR
Chain of hKIF18A (1-374) (Q2XVP4 whole entry partner, looked up): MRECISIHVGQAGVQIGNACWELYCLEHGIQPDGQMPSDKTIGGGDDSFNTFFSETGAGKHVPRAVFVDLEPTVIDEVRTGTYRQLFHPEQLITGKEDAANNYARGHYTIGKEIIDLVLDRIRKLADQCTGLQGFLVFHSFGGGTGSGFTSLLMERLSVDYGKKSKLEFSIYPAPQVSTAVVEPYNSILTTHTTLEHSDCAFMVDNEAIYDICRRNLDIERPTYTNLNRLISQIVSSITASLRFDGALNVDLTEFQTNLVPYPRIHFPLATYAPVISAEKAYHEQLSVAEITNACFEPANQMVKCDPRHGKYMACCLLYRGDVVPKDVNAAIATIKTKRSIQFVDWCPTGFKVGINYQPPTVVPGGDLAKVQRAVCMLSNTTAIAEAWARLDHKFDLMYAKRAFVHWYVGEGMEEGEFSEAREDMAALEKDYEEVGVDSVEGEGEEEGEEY
Chain of hKIF18A (1-374) (P02554 whole entry partner, looked up): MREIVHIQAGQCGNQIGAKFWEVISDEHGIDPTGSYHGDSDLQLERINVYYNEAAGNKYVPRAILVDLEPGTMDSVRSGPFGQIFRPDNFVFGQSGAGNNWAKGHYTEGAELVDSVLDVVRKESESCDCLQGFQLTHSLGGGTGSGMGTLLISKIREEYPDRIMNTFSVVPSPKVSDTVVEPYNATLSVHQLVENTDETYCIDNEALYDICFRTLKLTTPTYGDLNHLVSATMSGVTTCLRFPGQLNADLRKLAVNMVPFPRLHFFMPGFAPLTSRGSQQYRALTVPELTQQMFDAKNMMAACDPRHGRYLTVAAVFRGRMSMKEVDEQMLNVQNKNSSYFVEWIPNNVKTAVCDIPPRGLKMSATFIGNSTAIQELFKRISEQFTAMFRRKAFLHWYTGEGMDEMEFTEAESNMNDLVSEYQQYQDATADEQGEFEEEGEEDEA
Chain of KIF18a-Microtubule Complex (Q8NI77 whole entry, looked up): as the sequence (Q8NI77 whole entry, looked up) above
Chain of KIF18a-Microtubule Complex (Q2XVP4 whole entry partner, looked up): as the sequence (Q2XVP4 whole entry partner, looked up) above
Chain of KIF18a-Microtubule Complex (P02554 whole entry partner, looked up): as the sequence (P02554 whole entry partner, looked up) above

SMILES | kon (on-rate from binding kinetics assay) [1] [M⁻¹ s⁻¹] | disc. t1/2 (dissociation half-life ln(2)/koff) [1] [h] | Ki [1] [µM] | IC50 [3, 7] [µM] | IC50 [2, 8] [µM] | also measured
CC(C)(C)NS(=O)(=O)c1cccc(C(=O)N2C[C@]3(CC[C@H](C)CC3)c3cc(NS(C)(=O)=O)ccc32)c1 [Compound 140a] | 13100 | 29 | 0.0005 | – | – | koff (off-rate from binding kinetics assay) [1]: 6.67e-06 s⁻¹; IC50 [2, 6]: 0.01 µM
CS(=O)(=O)Nc1ccc2c(c1)C1(CCCCC1)CN2C(=O)c1cccc(S(=O)(=O)C2CCCCC2)c1 [Compound 70, N-(1′-(3-(cyclohexylsulfonyl)benzoyl)spiro[cyclohexane-1,3′-indolin]-5′-yl)methanesulfonamide] | 10000 | 3.0 | 0.0065 | 0.03 | 0.59 | koff [1]: 6.39e-05 s⁻¹
CS(=O)(=O)Nc1ccc2c(c1)C1(CCC3(CC3)CC1)CN2C(=O)c1ccc([C@H](O)C2CCCC2)o1 (single isomer, unassigned) [Compound 352a] | – | – | – | – | – | IC50 [4]: 0.045 µM; IC50 [5]: 0.04 µM; IC50 [2, 6]: 0.034 µM
CS(=O)(=O)Nc1ccc2c(c1)C1(CCCCC1)CN2C(=O)c1cccc(S(=O)(=O)N2CCC(F)(F)CC2)c1 [Compound 19, N-(1′-(3-((4,4-difluoropiperidin-1-yl)sulfonyl)benzoyl)spiro[cyclohexane-1,3′-indolin]-5′-yl)methanesulfonamide] | 14200 | 7.2 | 0.0018 | 0.032 | 0.092 | koff [1]: 2.67e-05 s⁻¹
O=C(c1cccc(S(=O)(=O)N2CCC(F)(F)CC2)c1)N1CC2(CCC3(CC3)CC2)c2cc(NS(=O)(=O)CCO)ccc21 [Compound 29, N-(1″-(3-((4,4-difluoropiperidin-1-yl)sulfonyl)benzoyl)dispiro[cyclopropane-1,1′-cyclohexane-4′,3″-indolin]-5″-yl)-2-hydroxyethane-1-sulfonamide] | – | – | – | 0.022 | 0.33 | –
CS(=O)(=O)Nc1ccc2c(c1)C1(CCCCC1)CN2C(=O)c1cccc([S+]([O-])C2CCCC2)c1 (centres unmarked) [Compound 43, N-(1′-(3-(cyclopentylsulfinyl)benzoyl)spiro [cyclohexane-1,3′-indolin]-5′-yl)methanesulfonamide] | – | – | – | 0.089 | 0.49 | –
CC(C)(C)NS(=O)(=O)c1cccc(C(=O)N2C[C@]3(CC[C@@H](C)CC3)c3cc(NS(C)(=O)=O)ccc32)c1 [Compound 140b] | 16100 | 8.7 | 0.0014 | – | – | koff (off-rate from binding kinetics assay) [1]: 2.22e-05 s⁻¹; IC50 [2, 6]: 0.045 µM
CS(=O)(=O)Nc1ccc2c(c1)C1(CCC3(CC3)CC1)CN2C(=O)c1cccc(S(=O)(=O)N2CCCCC2)c1 [Compound 20, N-(1″-(3-(piperidin-1-ylsulfonyl)benzoyl)dispiro[cyclopropane-1,1′-cyclohexane-4′,3″-indolin]-5″- yl)methanesulfonamide] | – | – | – | 0.013 | 0.025 | –
CS(=O)(=O)Nc1ccc2c(c1)C1(CCC3(CC3)CC1)CN2C(=O)c1ccc([C@@H](O)C2CCCC2)o1 (single isomer, unassigned) [Compound 352b] | – | – | – | – | – | IC50 [4]: 0.027 µM; IC50 [5]: 0.019 µM; IC50 [2, 6]: 0.019 µM
O=C(Nc1cccc(C(=O)N2CC3(CCCC3)c3c(F)cccc32)c1)NC1CC1 [Compound 2′, 1-cyclopropyl-3-(3-(4′-fluorospiro[cyclopentane-1,3′-indolin]-1′-carbonyl)phenyl)urea] | – | – | – | 0.92 | 2.6 | –
CS(=O)(=O)Nc1ccc2c(c1)C1(CCCC1)CN2C(=O)c1cccc(S(=O)(=O)N2CCC(F)(F)CC2)c1 [Compound 18, N-(1′-(3-((4,4-difluoropiperidin-1-yl)sulfonyl)benzoyl)spiro[cyclopentane-1,3′-indolin]-5′-yl)methanesulfonamide] | – | – | – | 0.079 | – | IC50 ([2]; HCC15, 168 h): 0.16 µM
CS(=O)(=O)Nc1ccc2c(c1)C1(CCC3(CC3)CC1)CN2C(=O)c1cccc(S(=O)(=O)N2CC3(CCO3)C2)c1 [Compound 153, N-(1″-(3-((1-oxa-6-azaspiro[3.3]heptan-6-yl)sulfonyl)benzoyl)dispiro[cyclopropane-1,1′-cyclohexane-4′,3″-indolin]-5″- yl)methanesulfonamide] | – | – | – | 0.018 | 0.044 | –
CC1CCC2(CC1)CN(C(=O)c1cccc(S(=O)(=O)N3CCC(F)(F)CC3)c1)c1ccc(NS(C)(=O)=O)cc12 (centres unmarked) [Compound 24, N-(1′-(3-((4,4-difluoropiperidin-1-yl)sulfonyl)benzoyl)-4-methylspiro[cyclohexane-1,3′-indolin]-5′-yl)methanesulfonamide] | – | – | – | – | 0.023 | IC50 [3]: 0.01 µM
O=C(c1cccc(S(=O)(=O)N2CCC(F)(F)CC2)c1)N1CC2(CCC3(CC3)CC2)c2ccccc21 [Compound 4, (3-((4,4-difluoropiperidin-1-yl)sulfonyl)phenyl)(dispiro[cyclopropane-1,1′-cyclohexane-4′,3″-indolin]-1″- yl)methanone] | – | – | – | 0.36 | 2.1 | –

Second part, led by results:

kon (on-rate from binding kinetics assay) [1] [M⁻¹ s⁻¹] | disc. t1/2 (dissociation half-life ln(2)/koff) [1] [h] | Ki [1] [µM] | IC50 [3, 7] [µM] | IC50 [2, 8] [µM] | SMILES | also measured
26700 | 61 | 0.00012 | 0.0068 | 0.013 | CS(=O)(=O)Nc1ccc2c(c1)C1(CCC3(CC3)CC1)CN2C(=O)c1cccc(S(=O)(=O)N2CC3(CCC3)C2)c1 [Compound 151, N-(1″-(3-((2-azaspiro[3.3]heptan-2-yl)sulfonyl)benzoyl)dispiro[cyclopropane-1,1′-cyclohexane-4′,3″-indolin]-5″- yl)methanesulfonamide] | koff [1]: 3.06e-06 s⁻¹
30600 | 24 | 0.00026 | 0.0073 | 0.015 | CC1(NS(=O)(=O)c2cccc(C(=O)N3CC4(CCC5(CC5)CC4)c4cc(NS(C)(=O)=O)ccc43)c2)CCC1 [Compound 182, N-(1-methylcyclobutyl)-3-(5″- (methylsulfonamido)dispiro[cyclopropane-1,1′-cyclohexane-4′,3″-indoline]-1″-carbonyl)benzenesulfonamide] | koff [1]: 8.06e-06 s⁻¹
– | – | – | 0.0055 | 0.028 | CS(=O)(=O)Nc1ccc2c(c1)C1(CCC3(CC3)CC1)CN2C(=O)c1cccc(S(=O)(=O)NC2CCC2)c1 [Compound 168, N-cyclobutyl-3-(5″- (methylsulfonamido)dispiro[cyclopropane-1,1′-cyclohexane-4′,3″-indoline]-1″-carbonyl)benzenesulfonamide] | –
– | – | – | 0.01 | 0.024 | CS(=O)(=O)Nc1ccc2c(c1)C1(CCC3(CC3)CC1)CN2C(=O)c1cccc(S(=O)(=O)N2CCC(F)(F)CC2)c1 [Compound 28, N-(1″-(3-((4,4-difluoropiperidin-1-yl)sulfonyl)benzoyl)dispiro[cyclopropane-1,1′-cyclohexane-4′,3″-indolin]-5″-yl)methanesulfonamide] | –
– | – | – | 0.0055 | 0.032 | CS(=O)(=O)Nc1ccc2c(c1)C1(CCC3(CC3)CC1)CN2C(=O)c1cccc(S(=O)(=O)NC2CC=CC2)c1 [Compound 172, N-(cyclopent-3-en-1-yl)-3-(5″- (methylsulfonamido)dispiro[cyclopropane-1,1′-cyclohexane-4′,3″-indoline]-1″-carbonyl)benzenesulfonamide] | –
13600 | 48 | 0.00029 | 0.012 | 0.036 | CC(C)(C)NS(=O)(=O)c1cccc(C(=O)N2CC3(CCC4(CC4)CC3)c3cc(NS(=O)(=O)CCO)ccc32)c1 [Compound 148, N-(tert-butyl)-3-(5″-((2-hydroxyethyl)sulfonamido)dispiro [cyclopropane-1,1′-cyclohexane-4′,3″- indoline]-1″- carbonyl)benzenesulfonamide] | koff [1]: 3.89e-06 s⁻¹

Reference: US12084420B2, “Indoline compounds for inhibiting KIF18A” (Volastra Therapeutics, Inc., priority 2021, dated 2024)
